Data on one compound can be found in patent publication US9594084B2, “Phosphorylation of histones and uses thereof” (H. LEE MOFFITT CANCER CENTER AND RESEARCH INSTITUTE, priority 2012, dated 2017).

In experiment [1] the target is T1, WEE1 (Homo sapiens, UniProt P30291). In words: In vitro kinase assay, purified WEE1 and H2B. The experiment is classed as biochemical. Also noted: GST; purchased Invitrogen. The following applies: MK1775 0.625 μM, 1 hour at 30° C. On the procedure: FIG. 13A is an immunoblot showing lysates from synchronized MEFs immunoprecipitated with pTyr37-H2B antibodies followed by immunoblotting with pTyr37-H2B antibody (top panel) or H2B antibody (bottom panel). FIG. 13B is an immunoblot showing cell lysates 6.30 hours post-release from H1975 cells synchronized by double thymidine alone (first column) or with 0.31 μM (second column), 0.62 μM (third column) and 1.25 μM (fourth column) MK1775 WEE1 inhibitor that were immunoprecipitated with pTyr37-H2B antibodies followed by immunoblotting with pTyr37-H2B, H2B, pTyr15-Cdc2, or Cdc2 antibodies. FIG. 13C is an immunoblot showing lysates collected at 0 and 6.30 hours post-release from synchronized MEFs transfected with control (first two columns) or WEE1 (last two columns) siRNAs that were immunoprecipitated with pTyr37-H2B antibodies followed by immunoblotting with pTyr37-H2B (top panel), H2B (second panel), WEE1 (third panel), or PTyr15-Cdc2 (bottom panel) antibodies. FIG. 13D is an immunoblot showing equimolar amounts of purified WEE1 (last three columns) and H2B (first three columns) proteins incubated in the presence (third column) or absence of WEE1 inhibitor (MK1775, 0.625 μM) for 1 hour at 30° C. and immunoblotted with pTyr37-H2B (top panel), H2B (middle panel), and WEE1 (bottom panel) antibodies. […]
T1 sequence (P30291 whole entry): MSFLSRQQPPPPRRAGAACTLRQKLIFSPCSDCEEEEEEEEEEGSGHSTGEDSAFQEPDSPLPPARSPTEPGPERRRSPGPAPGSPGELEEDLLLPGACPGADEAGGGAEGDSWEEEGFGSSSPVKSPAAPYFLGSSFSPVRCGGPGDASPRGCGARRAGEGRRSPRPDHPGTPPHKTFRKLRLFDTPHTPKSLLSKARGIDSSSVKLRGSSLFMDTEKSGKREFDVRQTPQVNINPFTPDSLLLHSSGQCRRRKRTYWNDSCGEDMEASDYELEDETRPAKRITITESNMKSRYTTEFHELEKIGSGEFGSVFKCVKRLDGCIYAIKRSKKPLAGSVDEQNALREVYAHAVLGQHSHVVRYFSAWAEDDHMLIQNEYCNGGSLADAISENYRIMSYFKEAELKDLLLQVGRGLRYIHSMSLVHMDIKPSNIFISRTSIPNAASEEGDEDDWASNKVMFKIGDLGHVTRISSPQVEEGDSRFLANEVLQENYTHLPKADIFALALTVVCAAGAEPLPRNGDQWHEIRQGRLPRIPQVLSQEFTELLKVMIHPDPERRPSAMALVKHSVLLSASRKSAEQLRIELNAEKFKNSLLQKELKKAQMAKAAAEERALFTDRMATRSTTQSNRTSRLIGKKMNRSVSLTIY

Experiment [2] addresses T1, WEE1. In words: Peptide Immunosandwich Assay (PIA) with GBM tumor lysates. The experiment is classed as biochemical. Conditions: 100 ug of lysates, 10 uM for 30 minutes. On the procedure:
Threshold interval is shown.
In brief, Streptavidin coated 96-well plates (R&D systems) were incubated with biotinylated human histone H2B derived peptides […] (SEQ ID NO: 62, Y37 site is underlined). H2B derived phospho-peptide KRSRKESp[…] (SEQ ID NO: 63) was used as positive control. Any unbound areas on the plate were blocked with 3% BSA. Next, purified WEE1 protein (100 ng) prepared in kinase buffer (20 mM HEPES, 225 mM NaCl, 1% Triton X-100, 10% glycerol, phosphatase and protease inhibitors) supplemented with 1 uM ATP and 1 uM MgCl2. After 2 hours of incubation, plates were washed with phosphate buffered saline containing 0.1% Tween 20 (PBST) and reblocked in 3% BSA. The pY37-H2B or pTyr antibodies (at 1:1000 dilution) were added and incubated for 1 hour. Unbound antibodies were washed and HRP-conjugated anti-mouse secondary antibodies (1:5000) were added. The magnitude of phosphorylation was detected using developer solution (OPD tablets, Sigma) and after 20 minutes of incubation, the plates were read at 450 nm.
To assess the WEE1 epigenetic activity in GBM patients, lysates were prepared from 8 GBM tumor biopsies and 3 normal brain samples as a control. The lysates were quantitated and 100 ug of lysates was used per reaction. Each reaction was performed in triplicates. […]

The test system of experiment [3] is core histone genes located in Hist1 cluster. In words: Quantitative RT-PCR of core histone transcripts in synchronized MEFs. Conditions: MK1775 0.625 μM, 14 hr, after 6.30 hours post-release (compare 8.30 hours). The experiment is classed as cell-based, mouse.
Experiment [4] has as its system cancers and cancer cell lines. The following applies: cited from earlier work.
Experiment [5] concerns WEE1 expressing cancer cell lines. Conditions: cited from earlier work.

`C=CCn1c(=O)c2cnc(Nc3ccc(N4CCN(C)CC4)cc3)nc2n1-c1cccc(C(C)(C)O)n1` [MK-1775]: at WEE1 [1], the “H2B pTyr37-phosphorylation by purified WEE1” value is on record as “abrogated”. Also, the “WEE1 activity in GBM tumor lysates” value on WEE1 [2] was “significantly reduced”. For the same compound, the “histone mRNA levels” value in experiment [3] was “significant increase”. The “sensitization to DNA damaging agents such as gemcitabine, 5-fluorouracil” value in experiment [4] is given as “able to sensitize”. In addition, in experiment [5], the apoptosis entry is listed as “selectively induces apoptosis”.
